# Laboratory results: PMC6925310 (SLAS discovery : advancing life sciences R & D, 2019)
# Where “and” joins values, the source holds several entries; their conditions need not be identical. Identical values can stand only once. Entries after “also recorded” stand apart in the source; their conditions may differ. Like-named read-outs stand apart in the source and are kept apart here.
# Legend:
# P. aeruginosa LysRS [1] = biological target: T1, P. aeruginosa LysRS (Pseudomonas aeruginosa, UniProt Q9HXU0); experiment: ATP:PPi exchange reaction, substrate kinetics; conditions: substrate varied, other substrate held at 2 mM; LysRS 0.1 μM
# T1 sequence (Q9HXU0 1-501): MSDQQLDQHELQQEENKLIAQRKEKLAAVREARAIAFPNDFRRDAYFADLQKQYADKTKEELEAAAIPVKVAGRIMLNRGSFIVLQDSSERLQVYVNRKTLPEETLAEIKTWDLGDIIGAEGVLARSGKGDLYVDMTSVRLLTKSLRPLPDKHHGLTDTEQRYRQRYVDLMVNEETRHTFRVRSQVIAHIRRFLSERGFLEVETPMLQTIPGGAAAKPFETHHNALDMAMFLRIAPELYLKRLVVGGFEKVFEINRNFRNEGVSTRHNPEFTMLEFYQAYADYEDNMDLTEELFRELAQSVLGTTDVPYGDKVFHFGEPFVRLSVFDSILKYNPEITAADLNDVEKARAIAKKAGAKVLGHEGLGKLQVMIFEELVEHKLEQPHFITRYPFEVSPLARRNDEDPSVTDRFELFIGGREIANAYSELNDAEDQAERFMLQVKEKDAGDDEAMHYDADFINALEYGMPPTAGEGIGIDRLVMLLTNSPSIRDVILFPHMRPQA
# P. aeruginosa LysRS [2] = biological target: T1, P. aeruginosa LysRS; experiment: SPA-based tRNA aminoacylation assay; assay type: biochemical
# P. aeruginosa LysRS [3] = biological target: T1, P. aeruginosa LysRS; experiment: Binding mode; assay type: biochemical; conditions: for mechanism of inhibition with respect to ATP: IC50 at ATP 25 to 1000 μM, amino acid constant; for mechanism of inhibition with respect to ATP / mechanism of inhibition with respect to lysine: LysRS 0.01 μM; for mechanism of inhibition with respect to lysine: IC50 at lysine 25 to 300 μM, ATP 2.5 mM
# M. catarrhalis = experiment: Time-kill kinetic assay; assay type: cell-based, Moraxella catarrhalis; conditions: 4×MIC, 0 to 24 h
# [4] = tested on: human embryonic kidney 293 cells (HEK-293)
# [5] = tested on: gram-positive bacterial cultures; conditions: cited from earlier work
# [6] = tested on: human embryonic kidney 293 cells (HEK-293); experiment: MTT cytotoxicity assay; conditions: HEK-293, MTT, 25 to 400 μg/mL, 24 h
# eukaryotic LysRS = conditions: cited from earlier work
smiles,measurement,setting,value
NCCCC[C@H](N)C(=O)O [lysine],kcat^obs,P. aeruginosa LysRS [1],13 s⁻¹ and 13.3 s⁻¹
"C=CC1=C(C)/C(=C/c2[nH]c(Cc3[nH]c(/C=C4\NC(=O)C(C)=C4C=C)c(C)c3CCC(=O)O)c(CCC(=O)O)c2C)NC1=O [BM01D09, bilirubin]",IC50,P. aeruginosa LysRS [2],17 µM
same,Ki,P. aeruginosa LysRS [3],3.5 µM
same,mechanism of inhibition with respect to ATP,P. aeruginosa LysRS [3],competing with ATP; also recorded: IC50 also increased; also recorded: competitive inhibition
same,mechanism of inhibition with respect to ATP,P. aeruginosa LysRS [3]; listed as bilirubin,competitive with ATP
same,mechanism of inhibition with respect to lysine,P. aeruginosa LysRS [3],no change in the IC50
same,mechanism of inhibition with respect to lysine,P. aeruginosa LysRS [3]; listed as bilirubin,noncompetitive with lysine
same,global mode of inhibition (time-kill),M. catarrhalis,bacteriostatic
same,CC50 relative to MICs against susceptible bacteria,[4],6-20 fold
same,inhibition of growth of gram-positive bacterial cultures,[5],inhibitory
"S=C(N/N=C1\CCCc2c1[nH]c1ccc(C3CCCCC3)cc21)Nc1ccccc1 [BT06F11, 1-[(~›E‹)-(6-cyclohexyl-2,3,4,9-tetrahydrocarbazol-1-ylidene)amino]-3-phenylthiourea]",mechanism of inhibition with respect to ATP,P. aeruginosa LysRS [3],mechanism other than substrate competition; also recorded: noncompetitive; also recorded: not observed to be competitive
same,mechanism of inhibition with respect to lysine,P. aeruginosa LysRS [3],mechanism other than substrate competition; also recorded: noncompetitive; also recorded: not observed to be competitive
same,global mode of inhibition (time-kill),M. catarrhalis,bactericidal; also recorded: inhibited growth by killing the bacteria
same,toxicity to human cell growth (in words),[6],not toxic at any concentration tested; also recorded: not observed to be toxic
"O=C(CCCCCCCCC(=O)N/N=C/c1ccc([N+](=O)[O-])o1)N/N=C/c1ccc([N+](=O)[O-])o1 [BT08F04, ~›N‹,~›N‹′-bis[(~›E‹)-(5-nitrofuran-2-yl)methylideneamino]decanediamide]",mechanism of inhibition with respect to ATP,P. aeruginosa LysRS [3],competitive with ATP; also recorded: competitive inhibition
same,mechanism of inhibition with respect to lysine,P. aeruginosa LysRS [3],uncompetitive with the amino acid
same,Ki,"P. aeruginosa LysRS [3]; read-out: mean Ki, calculated from IC50 values determined at 75 μM lysine and 2.5 mM ATP, multiple determinations",3.4 µM
same,global mode of inhibition (time-kill),M. catarrhalis,bactericidal; also recorded: inhibited growth by killing the bacteria
C[C@H]1CCC[C@H](C[C@H]2Cc3cc(O)cc(O)c3C(=O)O2)O1 [cladosporin],inhibition of eukaryotic LysRS (in words),eukaryotic LysRS,potent ATP competitive inhibitor
